Assay [1] relates to protein kinase B / insulin receptor phosphorylation. Briefly: Intracellular insulin signalling in isolated rat adipocytes (protein kinase B and insulin receptor phosphorylation). Format: cell-based, Wistar rats. As for the experimental part: Isolated fat cells were disrupted for total membrane preparation by hypo-osmotic lysis in a 20 mM HES buffer and an antiprotease and antiphosphatase cocktail as reported by Abella et al. (2003, Diabetes 52: 1004-1013). Protein concentrations were determined by the Bradford method (Bradford, 1976, Anal. Biochem. 72: 248-254) with gamma-globulin as protein concentration standard. Immunoprecipitation and immunoblot assays were performed as previously described by Abella et al. (2004, Diabetologia 47: 429-438) with the use of a monoclonal antiphosphotyrosine antibody for the immunoprecipitation and an anti-insulin receptor antibody for immunobloting, respectively. SDS-polyacrylamide gel electrophoresis was performed on membrane proteins following conventional procedures. Proteins were transferred to Immobilon and immunoblotting was performed as reported by Castello et al. (1994, J. Biol. Chem. 269: 5905-5912).
The mechanism of action of B6V10 was investigated in isolated rat adipocytes. Adipose cells from Wistar rats were incubated for different times in the presence of 25 μM hexaquis(benzylammonium) decavanadate (B6V10). Cells were also incubated in the presence of insulin (100 nM, 45 min), decavanadate (25 μM, 45 min) or semicarbazide (1 mM, 45 min). Subsequently, 2-deoxyglucose uptake (results shown in FIG. 7A), tyrosine phosphorylation of insulin receptor (FIG. 7B), phospho-Thr^308-protein kinase B (FIG. 7C) and phospho-Ser^473-protein kinase B (FIG. 7D) was measured. […] The phosphorylation of protein kinase B induced by B6V10 was parallel to activation of glucose transport (FIGS. 7C and 7D).
The effects of incubation with semicarbazide or phosphatidylinositol 3-kinase inhibitors were also investigated. Adipose cells were incubated with B6V10 (25 μM, 45 min) in the absence or presence of wortmannin (2 μM, 45 min), LY294002 (10 μM, 45 min) or semicarbazide (1 mM, 45 min) and thereafter 2-deoxyglucose uptake was determined during 5 min.

For assay [2], the system named is streptozotocin-induced diabetic rats. Nature of the assay: Chronic oral treatment of streptozotocin-induced diabetic rats, glycemia. It is filed as in vivo, rat. The conditions noted are these: for glycemia: oral, after the dosage increase to 10 μmol/kg/day; for effect on glycemia over the whole oral treatment, in words: streptozotocin (45 mg/kg) diabetic rats, daily oral administration for 17 days. As for the experimental part: FIG. 4 is a graphical illustration of the chronic and oral treatment with hexaquis(benzylammonium) decavanadate on glycemia of diabetic rats by estreptozotocine. In FIG. 4, [G] corresponds to the blood concentration of glucose (expressed in mg/dl) measured at different days of treatment (t/d). Diabetic rats were treated with a single daily oral dose of hexaquis(benzylammonium) decavanadate (5 μmol/kg/day between day 0 and day 7 marked with an arrow, and 10 μmol/kg/day from 7 days of treatment) (black squares) or with identical dose of sodium decavanadate (black diamonds). Glycemia in non-diabetic rats is also represented in the figure (black triangles).
Diabetes was induced in rats by intravenous administration of streptozotocin, and subsequently, a hexaquis(benzylammonium) decavanadate or sodium decavanadate unique dose was administered to the rats. […] After seven days of treatment, the dose was increased at 10 μmol/kg/day which was maintained for an additional ten days. […] Thus, glycemia in sodium decavanadate treated rats was approximately 450 mg/dl and glycemia of hexaquis(benzylammonium) decavanadate treated rats was approximately 250 mg/dl.
Male Wistar rats weighting 180-220 g were purchased from Harlan (Interfauna Ibérica S.A., Spain). Diabetes was induced by a single intraperitoneal injection of a freshly prepared solution of streptozotocin (in some studies the dose was 45 mg/kg body weight and in some others 100 mg/kg body weight dissolved in 50 mM citrate buffer, pH 4.5). Only diabetic animals with glycemia above 300 mg/dl were used. The animals were housed in animal quarters at 22° C. with a 12 h light/12 h dark cycle and were fed ad libitum. All procedures used were approved by the animal ethical committee of the University of Barcelona, Spain. Male mice C57 BL/Ks bearing the db/db mutation (Jackson Laboratories, Bar Harbor, Me.) were purchased from Harlan France (Gannat, France). C57BL/6J male mice were assigned for 16 weeks to very high-fat diet containing (in kcal): 72% from fat, 28% from proteins and <1% from carbohydrates (Burcelin et al., 2002, Am. J. Physiol. Endocrinol. Metab 282: E834-E842).
Osmotic minipumps delivering B6V10 (2.5 μmol/kg body wt/day) or decavanadate (2.5 μmol/kg body wt/day) were implanted subcutaneously in diabetic rats anaesthetised by ketamine hydrochloride (95 mg/kg) and xylasine (10 mg/kg). […] Glycemia was measured on arterio-venous blood collected from the tail vessels at 09:00 am for two weeks, before the administration of vanadate. Insulin concentrations were determined before and after treatment. In another set of experiments, B6V10 was orally administered at a single dose of 5 μmol/kg/day during the first week and 10 μmol/kg/day during 2 additional weeks by gastric gavage. A control group received the corresponding decavanadate salt in the absence of benzylamine. At the end of the treatment, animals were sacrificed and the liver, fat pad, heart and lung were kept at −80° C. and the plasma at −20° C. until their use for in vitro analysis.
In glucose tolerance tests and in chronic treatments, circulating glucose concentrations were determined by a rapid glucose analyser (Accutrend® Sensor Comfort, Roche, Basel. Switzerland). Plasma insulin (IRI) concentration was determined by ELISA method using a kit obtained from Crystal Chem. Inc. (Downers Grove, Ill.). Plasma triglycerides (Biosystems, Barcelona, Spain) and NEFAS (Wako Chemicals, Neuss, Germany) were determined with standard […] methods.
Chronic in vivo efficacy of B6V10 was evaluated in streptozotocin-induced diabetic rats and in db/db mice. Streptozotocin-induced (45 mg/kg) diabetic rats were subcutaneously treated with hexaquis(benzylammonium) decavanadate (2.5 μmol/kg) (B6V10, solid squares, FIG. 8A) or with decavanadate (2.5 μmol/kg) (V10, open circles, FIG. 8A) delivered subcutaneously by osmotic minipumps implanted in the dorsal region. Diabetic rats were also sham-operated (untreated, solid diamonds, FIG. 8A). […]

As for “hexaquis(benzylammonium) decavanadate [Example B6V10]”, the “effect of semicarbazide on protein kinase B phosphorylation induced by the compound” value in assay [1] (1 mM semicarbazide, 45 min) was “blocked by semicarbazide”. In addition, in assay [1] (isolated rat adipocytes, 25 μM), the “earliest time at which protein kinase B phosphorylation was detectable” value is 2.5 min; the “phosphorylation (activation) of protein kinase B, in words” value is on record as “rapidly stimulated protein kinase B”; the “tyrosine phosphorylation of insulin receptors” value is given as “undetectable”. The “time at which decrease of hyperglycemia was detected” value in assay [2] (oral 5 μmol/kg/day) is “after but two days of treatment”. Besides, the “effect on hyperglycemia, in words” value in assay [2] (oral 5 μmol/kg/day for seven days) is listed as “moderate decrease of hyperglycemia”. In assay [2] (oral 10 μmol/kg/day for an additional ten days after seven days at 5 μmol/kg/day), the “effect of the dosage increase on glycemia, in words” value is “additional decrease in glycemia”. In assay [2], the glycemia result was “approximately 250 mg/dl” and the “effect on glycemia over the whole oral treatment, in words” value is on record as “significant correction of hyperglycemia”.

On to “sodium decavanadate [Example V10, reference compound]”, for which the “phosphorylation (activation) of protein kinase B, in words” value in assay [1] (isolated rat adipocytes, 25 μM) is given as “not observed”. Further, in assay [2], the glycemia result is recorded as “approximately 450 mg/dl” and the “effect on glycemia over the whole oral treatment, in words” value is “did not alter glycemia”. Besides, in assay [2] (listed as sodium decavanadate), the “effect on glycemia over the whole oral treatment, in words” value is “not affected substantially”.

The record behind these values is US20080070987A1, “META-XYLYLENEDIAMINE VANADATE SALTS” (priority 2006, published 2008).
